Assay results as given in US20190000905A1, “Gynostemma pentaphyllum fermented extracts comprising Saponins as an active functional food ingredient and preparation method thereof” (BTC Co., Ltd., priority 2017, published 2019).

Key:
Assay type in all cases: cell-based
AMPK = experiment: Effect of saponins of the extract on activity of AMPK in 3T3-L1 cells (p-AMPK); details: FIG. 1 and FIG. 2
From the text: (§1) The effect of the saponins of the extract according to the present disclosure on the activity of AMPK, ACC and FAS in 3T3-L1 cells is shown in FIG. 1 and FIG. 2. AMPK is an enzyme involved in fatty acid oxidation, inhibition of adipocyte differentiation, etc. It is involved in inhibition of fatty acid biosynthesis and fatty acid degradation by phosphorylating (inactivating) ACC through AMPK phosphorylation (p-AMPK). FAS (fatty acid synthase) plays a role of promoting fatty acid synthesis.

ACC = experiment: Effect of saponins of the extract on activity of ACC in 3T3-L1 cells (p-ACC); details: FIG. 1 and FIG. 2
From the text: as §1

[1] = test system: FAS (fatty acid synthase); experiment: Effect of saponins of the extract on FAS expression in 3T3-L1 cells; details: FIG. 1 and FIG. 2
From the text: as §1

fat accumulation = experiment: Effect of saponins of the fermented extract on fat accumulation (FIG. 3); details: as compared to a control group
From the text: The effect of the saponins of the extract of fermented Gynostemma pentaphyllum according to the present disclosure on fat accumulation was investigated.

SMILES: CC(C)=CCC[C@](C)(O)[C@H]1CC[C@]2(C)[C@@H]1[C@H](O)C[C@@H]1[C@@]3(C)CC[C@H](O[C@@H]4O[C@H](CO)[C@@H](O)[C@H](O)[C@H]4O[C@@H]4O[C@H](CO)[C@@H](O)[C@H](O)[C@H]4O)C(C)(C)[C@@H]3CC[C@]12C [ginsenoside Rg3]
- activation of p-AMPK (AMPK): activated p-AMPK and p-ACC in a concentration-dependent manner
- activation of p-ACC (ACC): activated p-AMPK and p-ACC in a concentration-dependent manner
- expression of FAS (fatty acid synthase) [1]: inhibiting the expression of FAS
- inhibition of fat accumulation (fat accumulation): exhibited an effect of inhibiting fat accumulation

SMILES: CC(C)=CCC[C@@](C)(O)[C@H]1CC[C@]2(C)[C@@H]1[C@H](O)C[C@@H]1[C@@]3(C)C[C@@H](O)[C@H](O[C@@H]4O[C@H](CO)[C@@H](O)[C@H](O)[C@H]4O[C@@H]4O[C@H](CO)[C@@H](O)[C@H](O)[C@H]4O)C(C)(C)[C@@H]3CC[C@]12C [gypenoside LI]
- activation of p-AMPK (AMPK): activated p-AMPK and p-ACC in a concentration-dependent manner
- activation of p-ACC (ACC): activated p-AMPK and p-ACC in a concentration-dependent manner
- expression of FAS (fatty acid synthase) [1]: inhibiting the expression of FAS
- inhibition of fat accumulation (fat accumulation): exhibited an effect of inhibiting fat accumulation

SMILES: CC(C)=CCC[C@](C)(O)[C@H]1CC[C@]2(C)[C@@H]1[C@H](O)C[C@@H]1[C@@]3(C)C[C@@H](O)[C@H](O[C@@H]4O[C@H](CO)[C@@H](O)[C@H](O)[C@H]4O[C@@H]4O[C@H](CO)[C@@H](O)[C@H](O)[C@H]4O)C(C)(C)[C@@H]3CC[C@]12C [gypenoside L]
- inhibition of fat accumulation (fat accumulation): exhibited an effect of inhibiting fat accumulation
